Measurements as given in ChEMBL document CHEMBL3639234, “Pyrimidine PDE10 inhibitors” (2015).

Biological target: cAMP and cAMP-inhibited cGMP 3',5'-cyclic phosphodiesterase 10A (Homo sapiens, UniProt Q9Y233)
Experiment: Inhibition Assay: PDE10A2 was amplified from human fetal brain cDNA (Clontech, Mountain View, Calif.) using a forward primer corresponding to nucleotides 56-77 of human PDE10A2 (Accession No. AF127480, Genbank Identifier 4894716), containing a Kozak consensus sequence, and a reverse primer corresponding to nucleotides 2406-2413 of human PDE10A2 (Accession No. AF127480, Genbank Identifier 4894716). Amplification with Easy-A polymerase (Stratagene, La Jolla, Calif.) was 95° C. for 2 minutes followed by thirty three cycles of 95° C. for 40 seconds, 55° C. for 30 seconds, and 72° C. for 2 minutes 48 seconds. Final extension was 72° C. for 7 minutes. The PCR product was TA cloned into pcDNA3.2-TOPO (Invitrogen, Carlsbad, Calif.) according to standard protocol. AD293 cells with 70-80% confluency were transiently transfected with human PDE10A2/pcDNA3.2-TOPO using Lipofectamine 2000 according to manufacturer specifications (Invitrogen, Carlsbad, Calif.). Cells were harvested 48 hours post-transfection.
Assay type: cell-based

cAMP and cAMP-inhibited cGMP 3',5'-cyclic phosphodiesterase 10A, sequence (Q9Y233 whole entry): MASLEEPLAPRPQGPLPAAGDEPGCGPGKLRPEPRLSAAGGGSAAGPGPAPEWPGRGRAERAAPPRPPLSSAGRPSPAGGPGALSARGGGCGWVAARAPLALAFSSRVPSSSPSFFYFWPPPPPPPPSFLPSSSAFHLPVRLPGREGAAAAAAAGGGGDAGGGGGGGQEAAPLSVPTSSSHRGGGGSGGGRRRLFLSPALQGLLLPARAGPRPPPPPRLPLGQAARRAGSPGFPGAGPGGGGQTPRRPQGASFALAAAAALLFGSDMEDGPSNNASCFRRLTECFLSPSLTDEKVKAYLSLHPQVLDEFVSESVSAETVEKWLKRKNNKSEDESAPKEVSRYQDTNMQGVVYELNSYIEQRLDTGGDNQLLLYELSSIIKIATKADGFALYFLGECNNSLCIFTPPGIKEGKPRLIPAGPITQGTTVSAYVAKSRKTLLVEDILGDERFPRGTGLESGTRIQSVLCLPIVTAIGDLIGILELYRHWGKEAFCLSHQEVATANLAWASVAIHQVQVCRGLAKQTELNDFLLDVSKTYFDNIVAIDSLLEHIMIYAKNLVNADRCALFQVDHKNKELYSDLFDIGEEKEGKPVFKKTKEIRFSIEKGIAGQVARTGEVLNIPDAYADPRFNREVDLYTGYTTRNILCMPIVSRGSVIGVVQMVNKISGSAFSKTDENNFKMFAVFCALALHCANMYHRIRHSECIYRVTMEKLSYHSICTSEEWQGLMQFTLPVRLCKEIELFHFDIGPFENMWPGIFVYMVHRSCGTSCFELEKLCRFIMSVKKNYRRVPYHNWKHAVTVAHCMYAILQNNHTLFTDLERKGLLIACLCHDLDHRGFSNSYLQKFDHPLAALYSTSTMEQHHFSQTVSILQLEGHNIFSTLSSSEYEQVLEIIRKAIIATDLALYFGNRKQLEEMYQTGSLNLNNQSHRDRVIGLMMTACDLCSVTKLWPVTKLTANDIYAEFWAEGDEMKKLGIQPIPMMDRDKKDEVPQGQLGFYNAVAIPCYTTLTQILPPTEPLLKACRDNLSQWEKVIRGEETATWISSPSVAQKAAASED

SMILES: Cc1ccc([C@H]2C[C@@H]2COc2cc(NCc3cnn(C)c3)nc(C)n2)nc1
- Ki: 0.04 nM
